Where “and” joins values, the source holds several entries; their conditions need not be identical. Equal values may be shown once.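 The compound was tested at five concentrations on cells cultured in 96-well plates, with a 48-hour exposure period. At the GI50, growth is halved.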 Calls of active or inactive are those of the source. Rule as the data show it: active = GI50 up to about 1.1 µM and inactive = higher.
Assays:
Assay in all cases: growth of human tumour cells (NCI), 48 h
SNB-75 = tested on: SNB-75
NCI-H226 = tested on: NCI-H226
UO-31 = tested on: UO-31
U-251 = tested on: U-251
UACC-257 = tested on: UACC-257
SN12C = tested on: SN12C
MDA-MB-231 = tested on: MDA-MB-231
NCI/ADR-RES = tested on: NCI/ADR-RES
786-0 = tested on: 786-0
SF-295 = tested on: SF-295
A498 = tested on: A498
NCI-H522 = tested on: NCI-H522
DU-145 = tested on: DU-145
SF-539 = tested on: SF-539
SK-MEL-2 = tested on: SK-MEL-2
NCI-H23 = tested on: NCI-H23
ACHN = tested on: ACHN
SK-OV-3 = tested on: SK-OV-3
MOLT-4 = tested on: MOLT-4
HOP-92 = tested on: HOP-92

Measured: GI50

CCN1C(=O)CS/C1=N\NC(=O)CSc1nc2ccccc2c(=O)n1CC
inactive: SNB-75 > 100 µM | NCI-H226 > 100 µM | UO-31 > 100 µM | U-251 > 100 µM | UACC-257 > 100 µM | SN12C > 100 µM | MDA-MB-231 > 100 µM | NCI/ADR-RES > 100 µM | 786-0 > 100 µM | SF-295 > 100 µM | A498 > 100 µM | NCI-H522 > 100 µM | DU-145 > 100 µM | SF-539 > 100 µM | SK-MEL-2 > 100 µM | NCI-H23 > 100 µM | ACHN > 100 µM | SK-OV-3 > 100 µM | MOLT-4 > 100 µM

N#Cc1nnn(-c2ccccc2)c1O
inactive: SNB-75 > 100 µM | NCI-H226 > 100 µM | UO-31 > 100 µM | U-251 > 100 µM | UACC-257 > 100 µM | SN12C > 100 µM | MDA-MB-231 > 100 µM | NCI/ADR-RES > 100 µM | 786-0 > 100 µM | SF-295 > 100 µM | A498 > 100 µM | NCI-H522 > 100 µM | DU-145 > 100 µM | SF-539 > 100 µM | SK-MEL-2 > 100 µM | NCI-H23 > 100 µM | ACHN > 100 µM | SK-OV-3 > 100 µM | MOLT-4 > 100 µM

O=c1c2c3ccccc3[nH]c2c2cccc3c2n1CCC3
inactive: SNB-75 50.4 µM | NCI-H226 50.6 µM | UO-31 > 10 µM | U-251 36.1 µM | UACC-257 83 µM | SN12C 53.1 µM | MDA-MB-231 28.3 µM | NCI/ADR-RES 50 µM | 786-0 4.27 µM | SF-295 37.7 µM | A498 20.7 µM | HOP-92 40.2 µM | DU-145 > 100 µM | SF-539 40.1 µM | NCI-H23 45.8 µM | ACHN 41.1 µM | SK-OV-3 83.6 µM | MOLT-4 25.5 µM

N#CCC(=O)N/N=C\C(O)C(O)C(O)C(O)CO (configuration not stated)
inactive: SNB-75 > 100 µM | NCI-H226 > 100 µM | UO-31 > 100 µM | UACC-257 > 100 µM | SN12C > 100 µM | MDA-MB-231 > 100 µM | NCI/ADR-RES > 100 µM | 786-0 > 100 µM | SF-295 > 100 µM | A498 > 100 µM | NCI-H522 > 100 µM | DU-145 > 100 µM | SF-539 > 100 µM | SK-MEL-2 > 100 µM | NCI-H23 > 100 µM | ACHN > 100 µM | SK-OV-3 > 100 µM | MOLT-4 > 100 µM

Cc1cc(C)c2c(n1)S(=O)(=O)N(CCCN1CCN(c3cccc(Cl)c3)CC1)C(C(=O)c1ccccc1)=C2O
inactive: UO-31 19.2 µM | U-251 37.6 µM | UACC-257 19.3 µM | SN12C 20 µM | MDA-MB-231 44.1 µM | NCI/ADR-RES 20.6 µM | 786-0 19.5 µM | SF-295 31.8 µM | A498 28.8 µM | NCI-H522 24.8 µM | HOP-92 25.8 µM | DU-145 36.7 µM | SF-539 40.6 µM | SK-MEL-2 32.4 µM | NCI-H23 28.4 µM | ACHN 30.6 µM | SK-OV-3 33.7 µM | MOLT-4 7.82 µM

CC1(C)OC(=O)N(c2ccccc2)C12C=Cc1cccc([N+](=O)[O-])c1O2 (configuration not stated)
inactive: SNB-75 35.6 µM | NCI-H226 > 100 µM | UO-31 45.3 µM | U-251 65.9 µM | UACC-257 47.6 µM | SN12C > 100 µM | MDA-MB-231 > 100 µM | NCI/ADR-RES 48.2 µM | 786-0 > 100 µM | SF-295 55.1 µM | A498 50.2 µM | NCI-H522 36.5 µM | HOP-92 > 100 µM | DU-145 > 100 µM | SK-MEL-2 > 100 µM | NCI-H23 55.3 µM | ACHN > 100 µM | SK-OV-3 28.2 µM | MOLT-4 15.1 µM

Cc1cc2nc(N3C(=O)/C(=C/c4ccc(Oc5ccccc5)cc4)N=C3c3ccccc3)sc2cc1C
inactive: SNB-75 62.2 µM | UO-31 50.7 µM | U-251 64.6 µM | UACC-257 29.2 µM | SN12C > 100 µM | MDA-MB-231 > 100 µM | NCI/ADR-RES 26.2 µM | 786-0 50.8 µM | SF-295 33 µM | A498 54.7 µM | NCI-H522 24.6 µM | HOP-92 95.5 µM | DU-145 > 100 µM | SK-MEL-2 23.3 µM | NCI-H23 42.7 µM | ACHN > 100 µM | SK-OV-3 > 100 µM | MOLT-4 30.2 µM

Cn1c([C@H](C#N)C(=O)c2cc(O)ccc2[N+](=O)[O-])nc2ccccc21
inactive: SNB-75 > 100 µM | UO-31 > 100 µM | U-251 > 100 µM | UACC-257 > 100 µM | SN12C > 100 µM | MDA-MB-231 > 100 µM | NCI/ADR-RES > 100 µM | 786-0 > 100 µM | SF-295 > 100 µM | A498 > 100 µM | NCI-H522 > 100 µM | HOP-92 > 100 µM | DU-145 > 100 µM | SF-539 > 100 µM | SK-MEL-2 > 100 µM | NCI-H23 > 100 µM | ACHN > 100 µM | MOLT-4 4.2 µM

CN(C)CCOC1(Cc2ccc(F)cc2)CCC(C(C)(C)C)CC1 (configuration not stated)
inactive: NCI-H226 9.38 µM and 10.5 µM | UO-31 6.12 µM and 4.81 µM | U-251 5.28 µM and 6.25 µM | UACC-257 5.58 µM and 4.09 µM | SN12C 11.3 µM and 12 µM | MDA-MB-231 9.62 µM and 10.5 µM | NCI/ADR-RES 12.9 µM and 10.6 µM | 786-0 4.92 µM and 4.2 µM | SF-295 5.75 µM and 6.38 µM | A498 12.6 µM and 14.7 µM | NCI-H522 6.08 µM and 10.7 µM | HOP-92 12.2 µM | DU-145 9.2 µM and 9.44 µM | NCI-H23 13.3 µM and 12 µM | ACHN 11 µM and 12.9 µM | SK-OV-3 14 µM and 15.2 µM | MOLT-4 3.13 µM and 2.61 µM

O=C1c2ccccc2-n2c1nc1ccc([N+](=O)[O-])cc1c2=O
inactive: NCI-H226 25.6 µM | UO-31 42.9 µM | U-251 > 100 µM | UACC-257 89.7 µM | SN12C 49.2 µM | MDA-MB-231 45.7 µM | NCI/ADR-RES > 100 µM | 786-0 46.5 µM | SF-295 24.1 µM | A498 5.62 µM | NCI-H522 82.6 µM | HOP-92 > 100 µM | DU-145 > 100 µM | SF-539 > 100 µM | NCI-H23 48.2 µM | ACHN 58.9 µM | SK-OV-3 > 100 µM | MOLT-4 26.3 µM

Source: ChEMBL document CHEMBL1201862, “PubChem BioAssay data set” (2004)
